Where no end group is shown, it is not given here.
Key:
epitope peptide = assay: Antibody titer (GMT) of serum of Macaca fascicularis, ELISA; format: in vivo; details: 5 mg/body subcutaneous 3 times at two-week intervals, blood every two weeks until week 16
Procedure: AJP001 conjugated peptide having one of the B cell epitope sequences of SEQ ID NOs: 1-5 was dissolved in physiological saline and intradermally administered twice to BALB/c mice (female, 6-week-old, N=5-6) at 0.5 mg/body at 2-week intervals. Blood was collected before administration and 5 weeks after the initial administration, and the antibody titer against each AJP001 conjugated peptide and the binding ability to recombinant mouse IL-23 protein (rmIL-23) were measured by the ELISA method. […] After washing the wells with PBS-T, TMB solution (SIGMA) was added, the wells were allowed to stand for 30 min in the dark, the reaction was stopped by adding 0.5M H2SO4, and the absorbance at 450 nm was measured using a plate reader. The serum dilution rate that gave 1/2 (OD=1.75) of the maximum absorbance was defined as the antibody titer, and the geometric mean titer: GMT was calculated from the individual values. Binding to IL-23 protein was measured by the ELISA method in the same manner as the antibody titer, using rmIL-23 (Antibodies-online GmbH) as the solid-phased antigen and goat serum for blocking. […] Blood was collected every two weeks from the first day of administration until week 16, and the antibody titer (GMT) and binding to IL-23 of the serum at each time point were measured by the ELISA method (same method as in Example 1; the secondary antibody used was Anti-Monkey IgG (Abcam)). […]

rhIL-23 = assay: Binding of monkey antiserum to rhIL-23, ELISA; design: species or system human; details: monkey antiserum 6 weeks after the initial administration
Procedure: AJP001 conjugated peptide (SEQ ID NO: 6) was dissolved in physiological saline and subcutaneously administered to Macaca fascicularis (female, […], N=4) at 5 mg/body 3 times at two-week intervals. Blood was collected every two weeks from the first day of administration until week 16, and the antibody titer (GMT) and binding to IL-23 of the serum at each time point were measured by the ELISA method (same method as in Example 1; the secondary antibody used was Anti-Monkey IgG (Abcam)). In FIG. 7, “*” means P<0.05.

[1] = system: IL-17 production when mouse splenocytes were stimulated with rhIL-23; assay: Neutralization activity of IgG purified from monkey antiserum: IL-17 production of mouse splenocytes stimulated with rhIL-23; format: cell-based; details: 300 μg/mL of IgG derived from monkey antiserum (6 weeks)
Procedure: AJP001 conjugated peptide (SEQ ID NOs: 6-37) was dissolved in physiological saline, mixed with an equal amount of 2% Alhydrogel (invivogen), and this was intradermally administered to BALB/c mice (female, 6-week-old, N=5-6) at 0.5 mg/body 3 times at two-week intervals. Blood was collected before administration and at the time point of 6 weeks after initial administration, and the antibody titer (GMT) to each epitope sequence and binding ability to recombinant human IL-23 protein (rhIL-23) (Peprotech) were measured by the ELISA method (same method as in Example 1). The binding to rhIL-23 was evaluated by a binding ratio to normal serum by calculating the ratio of the absorbance of a well added with normal mouse serum to the absorbance of a well added with antiserum derived from a mouse administered with each AJP001 conjugated peptide (SEQ ID NOs: 6-37). In addition, the neutralization activity of mouse antiserum was evaluated using an action on IL-17 production in rhIL-23 stimulated mouse splenocyte as an index. […]
Then, IgG was purified using Protein G HP spin Trap (GE Healthcare) from the monkey antiserum obtained 6 weeks after the initial administration, and the action on IL-17 production when mouse splenocytes were stimulated with rhIL-23 was evaluated (same method as in Example 5).

hairless rats = assay: Psoriasis model, 2% imiquimod (IMQ) applied to auricle of hairless rats; format: in vivo, rat; details: 1 mg/body 3 times
Procedure: AJP001 conjugated peptide (SEQ ID NO: 2) was dissolved in physiological saline and intradermally administered to hairless rats (female, 6-week-old, N=6) at 1 mg/body 3 times at two-week intervals. From 6 weeks after the initial administration, 2% imiquimod (IMQ) was intermittently applied to the auricle 4 times in total at 1-day intervals to create a psoriasis model. A 2% IMQ application group was provided as a control group. The drug efficacy was evaluated by measuring the thickness of the auricle with a thickness gauge (Mitutoyo Corporation) from the first day of IMQ application to the eighth day. Furthermore, on the 8th day, histopathological evaluation of the auricular tissue was performed. Specifically, the collected auricle was fixed with 10% neutral formalin, and then a specimen was prepared according to a conventional method and stained with HE. HE-stained specimens were observed under a microscope, and inflammatory cell infiltration, edema, and thickness were scored in 4 stages (0: normal, 1: mild, 2: intermediate, 3: severe) and the total score was calculated. Furthermore, the antibody titer (GMT) of the serum at the time point of 6 weeks was measured by the ELISA method (same method as in Example 1. Anti-Rat IgG (GE Healthcare) was used as the secondary antibody). […]

Row | binding ability to rhIL-23 (rhIL-23) | Substance | antibody titer (GMT) over time (epitope peptide) | IL-17 production [1] | increase in auricular thickness (hairless rats; 2% IMQ 4 times from week 6, day 1 to 8) | inflammatory changes of tissue (auricle, HE score) (hairless rats; 2% IMQ, day 8)
1 | showed binding ability | SEQ ID NO 6: AJP001-Ahx-B cell epitope peptide conjugate; epitope SPSQPWQR (human 151-158) (not fully specified (N-terminus); listed as Homo sapiens) | increased from 2 weeks after the initial administration and persisted until 16 weeks | suppressed | – | –
2 | – | SEQ ID NO 2: AJP001-Ahx-B cell epitope peptide conjugate; epitope SSSQQWQR (mouse 152-159) (not fully specified (N-terminus); listed as Mus musculus) | – | – | suppressive action | suppressive action
